Literature values in patent US10753947B2, “Methods for screening voltage-gated proteins” (D.E. Shaw Research, LLC, priority 2012, dated 2020).
Substitutions are numbered along the chain they refer to. pIC50: −log10 of the molar value. Where two headings read alike, the source gives them in different places.

Columns and labels:
Kv1.1 = Kv1.1 (Homo sapiens, UniProt Q09470); conditions: cited from earlier work
Kv1.2 = Kv1.2 (Homo sapiens, UniProt P16389); conditions: cited from earlier work
Kv1.5 = Kv1.5 (Homo sapiens, UniProt P22460); conditions: Table 4; cited from earlier work
KCa3.1 = KCa3.1 (Homo sapiens, UniProt O15554); conditions: Table 4; cited from earlier work
Kv1.6 = Kv1.6 (Homo sapiens, UniProt P17658); conditions: Table 4; read-out: IC50 Others: Kv1.6; cited from earlier work
Kv1.4 = Kv1.4 (Homo sapiens, UniProt P22459); conditions: Table 4; read-out: IC50 Others: Kv1.4; cited from earlier work
Kv1.3 = Kv1.3 (Homo sapiens, UniProt P22001); conditions: cited from earlier work
Shaker = Shaker (Drosophila melanogaster, UniProt P08510, DUP563-563/L584V/Q583H); conditions: Table 5, cited from earlier work
Kv2.1 = biological target: T1, Kv2.1 (Homo sapiens, UniProt Q14721); conditions: Table 5; read-out: IC50, channel Kv2.1; cited from earlier work
T1 sequence (Q14721 1-858): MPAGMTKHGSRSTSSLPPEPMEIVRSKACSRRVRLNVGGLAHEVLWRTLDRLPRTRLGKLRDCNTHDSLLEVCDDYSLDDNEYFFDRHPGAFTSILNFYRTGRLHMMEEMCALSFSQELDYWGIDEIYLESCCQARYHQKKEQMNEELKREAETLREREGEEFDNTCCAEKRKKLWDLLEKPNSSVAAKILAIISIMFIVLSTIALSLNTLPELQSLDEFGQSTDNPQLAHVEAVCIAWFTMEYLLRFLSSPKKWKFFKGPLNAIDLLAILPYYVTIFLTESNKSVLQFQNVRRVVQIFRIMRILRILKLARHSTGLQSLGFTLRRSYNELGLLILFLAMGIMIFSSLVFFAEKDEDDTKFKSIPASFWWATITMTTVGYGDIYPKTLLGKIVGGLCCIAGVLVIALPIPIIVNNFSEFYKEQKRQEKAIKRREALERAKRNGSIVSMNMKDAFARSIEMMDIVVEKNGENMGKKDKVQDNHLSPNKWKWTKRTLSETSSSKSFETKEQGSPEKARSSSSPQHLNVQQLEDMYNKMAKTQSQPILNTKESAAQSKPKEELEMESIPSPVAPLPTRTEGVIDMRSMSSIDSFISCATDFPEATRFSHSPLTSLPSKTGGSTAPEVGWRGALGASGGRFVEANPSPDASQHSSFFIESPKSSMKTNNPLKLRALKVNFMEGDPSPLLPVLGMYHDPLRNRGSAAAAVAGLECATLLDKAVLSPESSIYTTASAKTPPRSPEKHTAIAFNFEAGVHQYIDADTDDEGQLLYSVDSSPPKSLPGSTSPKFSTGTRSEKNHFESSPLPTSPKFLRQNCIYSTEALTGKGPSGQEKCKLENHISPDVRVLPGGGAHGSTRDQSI

[1] = biological target: T2, Kv2.1 T359S K360G A366D S367A I383M Y384T K386V (Homo sapiens, UniProt Q14721, A366D/I383M/K360G/K386V/S367A/T359S/Y384T); conditions: Table 5; read-out: IC50, channel Kv2.1 T359S K360G A366D S367A I383M Y384T K386V; cited from earlier work
T2 sequence (Q14721 1-858 T359S/K360G/A366D/S367A/I383M/Y384T/K386V): T1 sequence (Q14721 1-858) with T359S, K360G, A366D, S367A, I383M, Y384T, K386V

[2] = Table 5, read-out: IC50, channel Kv1.3
[3] = Table 5, read-out: IC50, channel Kv1.1
[4] = Table 5, read-out: IC50, channel Kv1.2

Kv1.1, sequence (Q09470 whole entry): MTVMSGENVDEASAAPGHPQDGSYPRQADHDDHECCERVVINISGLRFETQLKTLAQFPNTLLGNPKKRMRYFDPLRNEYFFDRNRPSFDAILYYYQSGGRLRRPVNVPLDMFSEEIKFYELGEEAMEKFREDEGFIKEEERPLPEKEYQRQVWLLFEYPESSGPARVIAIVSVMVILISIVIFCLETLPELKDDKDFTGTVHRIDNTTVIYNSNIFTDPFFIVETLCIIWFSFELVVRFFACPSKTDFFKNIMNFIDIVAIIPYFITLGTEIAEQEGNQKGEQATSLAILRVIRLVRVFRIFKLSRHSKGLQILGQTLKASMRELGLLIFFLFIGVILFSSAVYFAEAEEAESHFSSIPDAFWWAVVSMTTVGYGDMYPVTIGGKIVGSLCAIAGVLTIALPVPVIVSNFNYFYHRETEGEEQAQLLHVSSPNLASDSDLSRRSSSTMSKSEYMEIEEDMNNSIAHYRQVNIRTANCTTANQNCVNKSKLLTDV
Kv1.2, sequence (P16389 whole entry): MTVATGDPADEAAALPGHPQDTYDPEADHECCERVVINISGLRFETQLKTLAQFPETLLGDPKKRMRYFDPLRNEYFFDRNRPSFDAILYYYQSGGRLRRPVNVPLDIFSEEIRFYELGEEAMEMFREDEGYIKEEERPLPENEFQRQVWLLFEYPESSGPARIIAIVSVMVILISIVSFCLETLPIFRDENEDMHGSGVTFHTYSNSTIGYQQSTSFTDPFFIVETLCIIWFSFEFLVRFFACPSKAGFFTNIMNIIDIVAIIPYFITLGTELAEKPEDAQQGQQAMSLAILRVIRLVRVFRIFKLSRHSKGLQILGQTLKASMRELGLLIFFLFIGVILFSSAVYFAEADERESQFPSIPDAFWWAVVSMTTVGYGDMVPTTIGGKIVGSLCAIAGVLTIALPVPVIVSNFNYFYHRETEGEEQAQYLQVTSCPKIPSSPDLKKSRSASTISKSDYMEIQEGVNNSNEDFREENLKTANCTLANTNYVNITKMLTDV
Kv1.3, sequence (P22001 whole entry): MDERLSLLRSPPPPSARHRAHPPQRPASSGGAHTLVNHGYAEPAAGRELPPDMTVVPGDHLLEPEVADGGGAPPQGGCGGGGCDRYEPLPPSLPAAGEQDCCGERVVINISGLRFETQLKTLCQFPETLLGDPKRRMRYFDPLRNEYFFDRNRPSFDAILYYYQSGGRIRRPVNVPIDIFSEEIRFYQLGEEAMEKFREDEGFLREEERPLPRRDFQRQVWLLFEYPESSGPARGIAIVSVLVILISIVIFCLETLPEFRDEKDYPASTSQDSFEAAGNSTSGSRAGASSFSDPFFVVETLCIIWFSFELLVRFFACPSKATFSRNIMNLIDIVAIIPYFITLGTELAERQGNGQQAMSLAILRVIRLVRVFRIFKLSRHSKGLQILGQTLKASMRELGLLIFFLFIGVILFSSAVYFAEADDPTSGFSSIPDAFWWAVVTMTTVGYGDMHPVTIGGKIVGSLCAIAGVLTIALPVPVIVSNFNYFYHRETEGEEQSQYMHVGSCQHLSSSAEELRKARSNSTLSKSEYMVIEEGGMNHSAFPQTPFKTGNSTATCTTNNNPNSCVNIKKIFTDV
Kv1.6, sequence (P17658 whole entry): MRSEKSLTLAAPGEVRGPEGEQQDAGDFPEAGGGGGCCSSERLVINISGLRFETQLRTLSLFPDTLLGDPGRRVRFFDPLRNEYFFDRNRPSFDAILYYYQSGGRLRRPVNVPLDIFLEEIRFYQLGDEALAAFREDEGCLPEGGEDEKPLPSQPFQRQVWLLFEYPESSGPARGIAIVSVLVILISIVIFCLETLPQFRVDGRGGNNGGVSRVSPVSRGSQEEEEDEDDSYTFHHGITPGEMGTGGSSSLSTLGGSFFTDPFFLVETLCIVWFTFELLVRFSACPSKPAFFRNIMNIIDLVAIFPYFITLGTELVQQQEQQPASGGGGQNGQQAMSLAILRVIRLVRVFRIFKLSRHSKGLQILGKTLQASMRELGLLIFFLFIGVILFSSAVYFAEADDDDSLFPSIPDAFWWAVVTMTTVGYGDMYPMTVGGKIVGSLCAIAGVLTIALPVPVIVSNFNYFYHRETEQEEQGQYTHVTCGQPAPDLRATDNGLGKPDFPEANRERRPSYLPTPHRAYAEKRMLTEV
Shaker, sequence (P08510 with tags, fused parts or gaps DUP563-563/Q583H/L584V): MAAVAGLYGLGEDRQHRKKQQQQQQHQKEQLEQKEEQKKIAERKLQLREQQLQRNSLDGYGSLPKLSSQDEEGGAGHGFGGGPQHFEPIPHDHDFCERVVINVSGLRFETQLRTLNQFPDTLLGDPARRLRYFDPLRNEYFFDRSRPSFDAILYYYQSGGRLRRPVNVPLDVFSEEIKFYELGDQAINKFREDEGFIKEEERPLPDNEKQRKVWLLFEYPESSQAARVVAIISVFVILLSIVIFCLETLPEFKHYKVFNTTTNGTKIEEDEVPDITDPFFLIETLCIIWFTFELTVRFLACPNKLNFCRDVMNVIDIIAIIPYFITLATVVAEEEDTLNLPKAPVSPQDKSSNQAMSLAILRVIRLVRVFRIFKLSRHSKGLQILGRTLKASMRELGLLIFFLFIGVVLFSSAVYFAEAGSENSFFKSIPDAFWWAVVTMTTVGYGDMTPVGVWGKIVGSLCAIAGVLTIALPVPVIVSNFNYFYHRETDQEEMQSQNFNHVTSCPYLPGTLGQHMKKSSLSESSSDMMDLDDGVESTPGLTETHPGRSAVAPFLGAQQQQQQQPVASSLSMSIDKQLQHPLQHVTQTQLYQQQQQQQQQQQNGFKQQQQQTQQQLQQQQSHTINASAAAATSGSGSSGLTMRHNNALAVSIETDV
Kv1.5, sequence (P22460 whole entry): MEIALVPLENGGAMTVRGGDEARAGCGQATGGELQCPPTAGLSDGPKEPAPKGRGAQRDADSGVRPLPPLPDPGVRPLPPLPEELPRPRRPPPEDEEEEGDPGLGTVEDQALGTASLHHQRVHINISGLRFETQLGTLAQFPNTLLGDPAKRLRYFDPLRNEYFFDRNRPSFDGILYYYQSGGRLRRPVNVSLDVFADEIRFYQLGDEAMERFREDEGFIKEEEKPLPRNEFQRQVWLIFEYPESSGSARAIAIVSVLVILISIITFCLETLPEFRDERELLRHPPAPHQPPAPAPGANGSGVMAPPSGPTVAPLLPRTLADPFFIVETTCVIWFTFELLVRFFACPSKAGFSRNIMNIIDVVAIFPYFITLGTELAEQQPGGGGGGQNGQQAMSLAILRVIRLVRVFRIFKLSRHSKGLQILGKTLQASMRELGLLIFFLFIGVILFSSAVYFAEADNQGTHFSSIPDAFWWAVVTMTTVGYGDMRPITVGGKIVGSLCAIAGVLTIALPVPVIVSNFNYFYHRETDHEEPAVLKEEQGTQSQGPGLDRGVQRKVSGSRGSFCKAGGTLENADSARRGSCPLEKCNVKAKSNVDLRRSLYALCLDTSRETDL
KCa3.1, sequence (O15554 whole entry): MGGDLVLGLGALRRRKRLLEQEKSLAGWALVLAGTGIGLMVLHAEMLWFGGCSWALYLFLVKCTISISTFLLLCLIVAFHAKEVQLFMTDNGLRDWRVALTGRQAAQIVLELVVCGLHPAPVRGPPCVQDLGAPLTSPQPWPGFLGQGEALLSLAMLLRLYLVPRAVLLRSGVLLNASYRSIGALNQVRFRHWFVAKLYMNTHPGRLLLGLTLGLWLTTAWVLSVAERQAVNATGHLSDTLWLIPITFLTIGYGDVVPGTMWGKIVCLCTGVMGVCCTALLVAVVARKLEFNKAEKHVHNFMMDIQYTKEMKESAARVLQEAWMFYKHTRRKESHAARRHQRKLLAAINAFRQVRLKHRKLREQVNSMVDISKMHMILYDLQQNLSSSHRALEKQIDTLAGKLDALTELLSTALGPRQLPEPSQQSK
Kv1.4, sequence (P22459 whole entry): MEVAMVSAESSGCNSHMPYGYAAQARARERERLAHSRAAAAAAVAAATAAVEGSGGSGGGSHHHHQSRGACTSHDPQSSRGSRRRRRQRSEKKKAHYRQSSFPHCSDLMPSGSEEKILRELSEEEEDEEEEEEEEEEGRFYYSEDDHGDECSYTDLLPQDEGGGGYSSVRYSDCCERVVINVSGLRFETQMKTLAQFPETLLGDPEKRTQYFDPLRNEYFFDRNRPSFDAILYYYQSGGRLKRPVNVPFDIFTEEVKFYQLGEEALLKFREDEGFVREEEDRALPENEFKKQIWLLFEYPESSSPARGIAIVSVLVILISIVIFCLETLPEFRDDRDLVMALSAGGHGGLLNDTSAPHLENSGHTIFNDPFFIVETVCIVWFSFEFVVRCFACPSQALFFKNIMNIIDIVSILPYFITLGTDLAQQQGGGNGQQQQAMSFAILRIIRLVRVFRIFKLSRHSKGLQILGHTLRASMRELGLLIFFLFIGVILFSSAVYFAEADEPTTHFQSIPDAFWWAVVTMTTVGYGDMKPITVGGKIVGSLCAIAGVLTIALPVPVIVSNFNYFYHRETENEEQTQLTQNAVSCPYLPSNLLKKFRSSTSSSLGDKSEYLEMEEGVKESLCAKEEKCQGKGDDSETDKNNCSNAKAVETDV

Compound | pIC50 (Kv1.6) | pIC50 (Kv1.3; [2]) | pIC50 (Kv1.1; [3]) | pIC50 (Kv1.2; [4]) | pIC50 (Kv2.1) | further results
O=c1ccc2c(OCCCCOc3ccccc3)c3ccoc3cc2o1 [PAP-1] | 4.51 | – | – | – | – | pIC50 (Kv1.1; Table 4, read-out: IC50 Kv1.1): 7.19; pIC50 (Kv1.2; Table 4, read-out: IC50 Kv1.2): 6.60; pIC50 (Kv1.5): 7.35; pIC50 (KCa3.1): 5.00; pIC50 (Kv1.4): 6.77
O=c1ccc2c(OCCCCc3ccccc3)c3ccoc3cc2o1 [Psora-4] | 7.21 | – | – | – | – | –
Charybdotoxin [Charybdotoxin (ChTX)] | – | 9.72 | 5.82 | 7.85 | < 5.70 | pIC50 (Kv1.3; Table 3, read-out: IC50 Values of Kv1.3 ion channel modulating agent): 9.72; pIC50 (Shaker; read-out: IC50, channel Shaker): 6.64
hanatoxin [HaTx] | – | < 6.30 | < 6.30 | < 5.70 | 6.97 | IC50, channel Shaker (Shaker; result in words): Weak; pIC50 [1]: 6.99
